System: rat elevated zero maze model of anxiety
Assay: Rat elevated zero maze model of anxiety (% time on open areas, stretched attend postures)
Type: in vivo, Sprague-Dawley rats
Text: The rat zero-maze model is a refined alternative to the plus-maze, the most widely used animal model of anxiety, and consists of an elevated annular platform, divided equally into four quadrants. Two opposite quadrants are enclosed by Perspex walls on both the inner and the outer edges of the platform, while the remaining two opposite quadrants are open being enclosed only by a Perspex “lip”. Animals will show a preference for the closed areas, and avoidance of the open sections is assumed to stem from a rodent's natural aversion to open, exposed spaces. The primary index of anxiety, which reflect changes in open arm preference, is the percentage of time spent on the open areas. A reduction in the amount of activity on the open areas is considered to reflect an increase in anxiety. Other, ethologically-based behaviours are also assessed as indices of anxiety. One of the most important is stretched attend postures (SAP) from closed to open quadrants. […] Shepherd, J K; et al., (1994) Behavioural and pharmacological validation of the elevated “zero-maze” as an animal model of anxiety. Psychopharmacol., 116:56-64.
Male Sprague-Dawley 200-250 g (Envigo UK) rats were used. Animals were group-housed (5 per cage; cage size: 40×40×20 cm) in a temperature-controlled environment (22±2° C.), under a 12 h light-dark cycle (lights on: 08:00 hours) for one week prior to testing. Food and water were freely available. Number of animals per group=5. Animals were moved into the experimental room 16-24 hours before testing.
The elevated 0-maze comprises a black Perspex annular platform (105 cm diameter, 10 cm width) elevated to 65 cm above ground level, divided equally into four quadrants. Two opposite quadrants are enclosed by clear red Perspex walls (27 cm high) on both the inner and outer edges of the platform, while the remaining two opposite quadrants are surrounded only by a Perspex “lip” (1 cm high) which serves as a tactile guide to animals on these open areas.
Subjects were weighed and tail marked before being injected. After a specified pre-treatment time, subjects were placed in a closed quadrant and a 5-min test period were recorded on videotape for subsequent analysis. The maze were cleaned with 5% methanol/water solution and dried thoroughly between test sessions. Behavioural measures comprise percentage time spent on the open areas (% TO) and frequency of stretched attend postures (SAP) from closed to open quadrants. Since the control groups were all treated identically with the same vehicle these were combined to increase power. The Chlordiazepoxide groups were also treated identically with the same dose so these were also combined to increase power. Animals are scored as being in the open area when all four paws were in an open quadrant and in the closed area only when all four paws have passed over the open-closed divide. All testing were carried out between 9.00 and 16.00 hours.
For each study, a 1-way ANOVA was conducted across vehicle, CDP, and drug treatment groups. Each group was compared to the vehicle group and a p-value for treatment determined by Fishers Least Significant Difference (LSD) test. This analysis was performed in GraphPad Prism (Version 9).
Intraperitoneal (IP): Racemic methylone HCl was formulated in Vehicle 1 (Saline) for injection to concentrations of 1, 3 and 6 mg/mL to provide doses of 5, 15 and 30 mg/kg when administered ip in 5 mL/kg dosing volumes.
Intraperitoneal (IP): S-methylone HCl was formulated in Vehicle 1 (Saline) for injection to concentrations of 0.5, 1, 1.5, 3 and 6 mg/mL to provide doses of 2.5, 5, 7.5, 15 and 30 mg/kg when administered ip in 5 mL/kg dosing volumes.
Intraperitoneal (IP): R-methylone HCl was formulated in Vehicle 1 (Saline) for injection to concentrations of 1, 3 and 6 mg/mL to provide doses of 5, 15 and 30 mg/kg when administered ip in 5 mL/kg dosing volumes. […]

[1] = 30 mg/kg ip, 30 min pretreatment, vs vehicle and chlordiazepoxide 6 mg/kg, male SD rats
[2] = specific (sufficient) doses ip, compared with chlordiazepoxide 6 mg/kg

SMILES: CNC(C)C(=O)c1ccc2c(c1)OCO2 (racemic) [racemic methylone]
- time spent in the open arms (5 mg/kg ip, 30 min pretreatment, vs vehicle, male SD rats): decrease in time spent in the open arms vs placebo
- frequency of SAPs (15 mg/kg ip, 30 min pretreatment, male SD rats): dose dependent decrease in SAPs
- time spent in the open arms (15 mg/kg ip, 30 min pretreatment, vs vehicle, male SD rats): no difference from placebo
- frequency of SAPs [1]: decrease in SAPs
- time spent in the open arms [1]: significant decrease in time spent in the open arms
- anxiogenic effect (across the doses tested, ip, male SD rats): show anxiogenic effects at lower doses
- frequency of SAPs [2]: decreased the frequency of SAPs as effectively as the benzodiazepine chlordiazepoxide
- time in the open arms [2]: increase time in the open arms
